In patent publication US9180107B2 (NANOPHARMACEUTICALS LLC, priority 2009, dated 2015):
Read-outs that look alike come from different tables or passages of the source.

Tests used:
[1] = tested on: Human glioblastoma U87MG cells; assay: Anti-proliferation (total cell counts) in bellows cell culture system with pharmacodynamic modeling; assay type: cell-based; details: for decrease in cell counts compared with untreated control cells: 7-d treatment; for IC50: Homo sapiens, U-87 MG, nano-tetrac IC50 are hypothetical concentrations assuming all bound tetrac is available
Procedure: Each cell culture system is a compressible (bellows) 500 mL bottle which contains cell culture medium and specially-treated polymer flakes to which cells spontaneously attach and grow. Through moving bellows and porous membranes, the level of the medium in the bottle changes periodically. Consequently, the cells are alternately submerged in the culture medium, then exposed to 5% CO2/95% air which creates a dynamic interface between air and medium on the cell surface that maximizes nutrient uptake and oxygen transfer. The system provides a low shear, high aeration and foam-free culture environment. Proprietary treatment of the surfaces of the flakes enables seating and harvesting of cells and secreted proteins are readily isolated from the perfusate.
In a non-perfusion bellows cell culture system that was also used, the medium in each bottle was replaced by fresh medium every 24 h. In the perfusion bellows cell culture system, medium was progressively refreshed over 24 h, i.e., one complete change of medium occurred over 24 h.
In establishing the system, 5×10^7 cells were seeded in perfusion and non-perfusion bellows bottles and incubated overnight at 37° C. After that, flakes were harvested, trypsinized and cells were collected. Cell numbers were counted. The numbers of cells that attached to were 10-15×10^6 per bottle. For experiments, the perfusion bellows cell culture system was run for 2 d prior to starting experiments. The cell numbers at this point were about 30-50×10^6 cells/bottle. Cell cultures were then exposed to 1% FBS-containing medium. Tetrac or nano-tetrac was added to the medium in the reservoir bottle to achieve the final concentrations reported for each experiment.
The time course of cell counts of the various cancer lines treated with different concentrations of tetrac or nano-tetrac was modeled by utilizing the pooled approach in NONMEM VI (version 6.2). All time points and treatment arms within each experiment were modeled simultaneously. A mechanism-based model (see Bulitta et al., 2009. Antimicrob. Agents Chemother. 53:46-56) was adapted to describe the proliferation of cancer cells and the inhibition of proliferation by tetrac. This model assumes two populations of cells in different phases of the cell cycle: cells that are preparing for replication (phase 1) and cells that are immediately “pre-replication” (phase 2). Cells transition from phase 1 to phase 2 by a first-order growth rate constant, while replication from phase 2 to phase 1 is assumed to be fast (see FIG. 2).
[formula] [formula] [formula] where C1 is the number of cells in phase 1, C2 the number of cells in phase 2, k21 the first order rate constant for replication (transition from phase 2 to phase 1), and k12 the first-order growth rate constant for transition from phase 1 to phase 2. The total number of cells Ct is the sum of C1 and C2. Rep is the replication efficiency factor which is described by:
[formula] where Cmax is the maximum number of cells. Without tetrac, the replication efficiency factor approaches 2, which reflects a 100% probability of successful replication. InhR describes the inhibitory effect of tetrac on the probability of successful replication:
[formula] Where ImaxR is the maximum effect of tetrac on probability of successful replication and IC50R is the tetrac concentration needed to achieve a half-maximal effect. Inhk describes the inhibitory effect of tetrac on the rate of growth:
[formula] Where Imaxk is the maximum effect of tetrac on rate of growth and IC50k is the tetrac concentration needed to achieve a half-maximal effect. Results

[2] = tested on: human embryonic kidney 293T cells; assay: Proliferation of non-malignant cells; assay type: cell-based; details: 10^−6M daily for 7 days
Procedure: FIG. 9 is a series of graphs showing the comparison of nano-tetrac and tetrac on cell proliferation in non-malignant cells. CV-1 cells (FIG. 9A) and 293 T cells (FIG. 9B) were treated daily with 10^−6 M tetrac or nano-tetrac. Cells were harvested at the time points indicated. Total cell numbers taken after each treatment were used as an indicator for tetrac- or nano-tetrac-induced anti-proliferation.
In order to confirm that tetrac and nano-tetrac only suppress cell proliferation in cancer cells, tetrac and nano-tetrac were also examined for potential anti-proliferative effects on immortalized non-malignant cells, using monkey kidney epithelial CV-1 cells and human embryonic kidney 293T cells. The cells were treated daily with either 10^−6M tetrac or 10^−6M nano-tetrac for 7 days, then were harvested, counted and examined microscopically.

[3] = tested on: MDA-MB cells; assay: Pro-apoptotic gene expression by RT-PCR; assay type: cell-based, human; details: 10^−6 M
Procedure: MDA-MB cells were treated daily with 10^−6M of tetrac or nano-tetrac in bellows perfusion culture system. Cells were harvested after 3 days of treatment and total RNA was extracted. RT-PCR was conducted as described in Example 1, infra.
Total RNA was isolated as described previously. (See Lin et al., 2008. Carcinogenesis. 29:62-69). First strand complementary DNAs were synthesized from 1 μg of total RNA using oligo dT and AMV Reverse Transcriptase (Promega, Madison, Wis.). First-strand cDNA templates were amplified for GAPDH, c-fos, PIG3, c-Jun, and BAD mRNAs by polymerase chain reaction (PCR), using a hot start (Ampliwax, Perkin Elmer, Foster City, Calif.). Primer sequences were GAPDH [5′-[…]-3′ (forward) (SEQ ID NO: 1) and 5′-[…]-3′ (reverse) (SEQ ID NO:2)], c-fos [5′-[…]-3′(forward) (SEQ ID NO:3) and 5′-CAGTCA-[…]-3′ (reverse) (SEQ ID NO:4)], PIG3 [5′-[…]-[…]-3′(forward) (SEQ ID NO:5) and 5′-[…]-3′ (reverse) (SEQ ID NO:6)], c-jun [5′-[…]-3′ (forward) (SEQ ID NO:7) and 5′-[…]-3′ (reverse) (SEQ ID NO:8)] and BAD [5′-GTT-[…]-3′ (forward) (SEQ ID NO:9) and 5′-[…]-3′ (reverse) (SEQ ID NO:10)]. The PCR cycle was an initial step of 95° C. for 3 min, followed by 94° C. for 1 min, 55° C. for 1 min, 72° C. for 1 min, then 25 cycles and a final cycle of 72° C. for 8 min. […] Photographs were scanned under direct light for quantitation and illustration. […]

[4] = U87MG, model parameter estimate

O=C(O)Cc1cc(I)c(Oc2cc(I)c(O)c(I)c2)c(I)c1 [tetrac, Tetraiodothyroacetic acid]
decrease in cell counts compared with untreated control cells ([1]; 10^−7 M): > 28%
decrease in cell counts compared with untreated control cells ([1]; 10^−8 M): more than 15%
IC50 ([1]; U87MG, model parameter estimate, read-out: IC50R (effect on success of replication)): 47.4 µM
IC50 ([1]; U87MG, model parameter estimate, read-out: IC50k (effect on rate of growth)): 0.047 µM
ImaxR (maximum effect on success of replication) [1, 4]: 0.92
Imaxk (maximum effect on rate of growth) [1, 4]: 0.57
change in cell numbers and morphology vs untreated control [2]: no significant change
expression of c-fos [3]: increased expression
expression of c-jun [3]: increased expression
